The values that follow come from ChEMBL document CHEMBL1149313, “Synthesis of classical, three-carbon-bridged 5-substituted furo[2,3-d]pyrimidine and 6-substituted pyrrolo[2,3-d]pyrimidine analogues as antifolates” (J Med Chem, 2004).

As a reminder, the GI50 is the concentration at which growth is held to half of that of the control. As usually defined, the IC50 is the concentration that inhibits the measured activity by half. In general, inhibition refers to the change of the read-out against control, counted positive when it falls. A word on the Km: it is the concentration of substrate that gives half-maximal velocity.

Data set [1] has as its system CCRF-CEM. Nature of the data set: Growth inhibition in human CCRF-CEM cells assessed as cell growth relative to control. Type of data set: functional. Also on record: scale not given: the % may be the effect or the level left.
Data set [2] has as its system CCRF-CEM. Put plainly: Cell growth in human CCRF-CEM cells at 30 nM in presence of 5 uM thymidine and 10 uM deoxycytidine relative to control. It is filed as functional.
In data set [3] the test system is CCRF-CEM. Put plainly: Cell growth in human CCRF-CEM cells at 30 nM in presence of 10 uM hypoxanthine and 10 uM deoxycytidine. It is filed as functional.
Data set [4] deals with CCRF-CEM. Nature of the data set: Cell growth in human CCRF-CEM cells at 30 nM in presence of thymidine, hypoxanthine and 10 uM deoxycytidine. It is filed as functional.
The subject of data set [5] is CCRF-CEM. Put plainly: Cell growth in human CCRF-CEM cells in presence of 5 uM thymidine and 10 uM deoxycytidine relative to control. Type of data set: functional.
Data set [6] relates to CCRF-CEM. Nature of the data set: Cell growth in human CCRF-CEM cells in presence of 10 uM hypoxanthine and 10 uM deoxycytidine relative to control. Type of data set: functional.
For data set [7], the system named is CCRF-CEM. Nature of the data set: Cell growth in human CCRF-CEM cells in presence of thymidine and hypoxanthine and 10 uM deoxycytidine relative to control. Type of data set: functional.
Data set [8] relates to CCRF-CEM. Put plainly: Cell growth in human CCRF-CEM cells relative to control. It is filed as functional.
A short description of data set [9]: Cytotoxicity against human CCRF-CEM cells. Type of data set: cell-based.
A short description of data set [10]: Cytotoxicity against human HL60 cells. Type of data set: cell-based. The settings on record: HL-60 cells.
A short description of data set [11]: Cytotoxicity against human K562 cells. Type of data set: cell-based.
Data set [12] can be described thus: Cytotoxicity against human SR cells. It is filed as cell-based.
Data set [13] in a line: Cytotoxicity against human A549 cells. Type of data set: cell-based.
Data set [14] is described as follows: Cytotoxicity against human NCI-H460 cells. It is filed as cell-based.
A short description of data set [15]: Cytotoxicity against human HOP92 cells. It is filed as cell-based. The settings on record: HOP-92 cells.
The nature of data set [16]: Cytotoxicity against human HCT116 cells. The note with it: HCT-116 cells. It is filed as cell-based.
Data set [17] in a line: Cytotoxicity against human SW620 cells. It is filed as cell-based. The note with it: SW-620 cells.
The test system of the next data set is SF-268. Nature of the data set: Cytotoxicity against SF268 cells. Type of data set: functional. The note with it: Homo sapiens.
Data set [18] in a line: Cytotoxicity against human SK-MEL-28 cells. It is filed as cell-based.
The nature of data set [19]: Cytotoxicity against human 786-0 cells. It is filed as cell-based.
Data set [20] is described as follows: Cytotoxicity against human PC3 cells. The note with it: PC-3 cells. It is filed as cell-based.
The nature of data set [21]: Cytotoxicity against human MCF7 cells. Type of data set: cell-based.
The nature of data set [22]: Cytotoxicity against human MDA-MB-435 cells. It is filed as cell-based.
Data set [23] is described as follows: Cytotoxicity against MDAN cells. The settings on record: human. It is filed as cell-based, MDA-N.
The target of data set [24] is Thymidylate synthase (Homo sapiens, UniProt P04818). Nature of the data set: Inhibition of human recombinant thymidylate synthase.
Thymidylate synthase (Homo sapiens, UniProt P04818), sequence (P04818 whole entry): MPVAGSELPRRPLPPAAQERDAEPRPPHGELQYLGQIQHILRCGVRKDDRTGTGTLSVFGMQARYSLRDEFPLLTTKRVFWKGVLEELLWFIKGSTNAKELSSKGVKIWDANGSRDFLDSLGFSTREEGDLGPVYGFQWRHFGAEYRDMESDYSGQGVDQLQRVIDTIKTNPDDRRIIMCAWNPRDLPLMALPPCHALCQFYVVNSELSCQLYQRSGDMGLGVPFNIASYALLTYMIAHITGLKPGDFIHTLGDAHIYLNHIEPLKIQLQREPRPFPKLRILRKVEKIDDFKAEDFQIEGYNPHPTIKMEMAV
Data set [25] concerns the target Thymidylate synthase (Escherichia coli, UniProt C3SWJ7). Put plainly: Inhibition of Escherichia coli thymidylate synthase.
In data set [26] the target is T1, Thymidylate synthase (Lactobacillus casei, UniProt P00469).
T1 sequence (P00469 whole entry): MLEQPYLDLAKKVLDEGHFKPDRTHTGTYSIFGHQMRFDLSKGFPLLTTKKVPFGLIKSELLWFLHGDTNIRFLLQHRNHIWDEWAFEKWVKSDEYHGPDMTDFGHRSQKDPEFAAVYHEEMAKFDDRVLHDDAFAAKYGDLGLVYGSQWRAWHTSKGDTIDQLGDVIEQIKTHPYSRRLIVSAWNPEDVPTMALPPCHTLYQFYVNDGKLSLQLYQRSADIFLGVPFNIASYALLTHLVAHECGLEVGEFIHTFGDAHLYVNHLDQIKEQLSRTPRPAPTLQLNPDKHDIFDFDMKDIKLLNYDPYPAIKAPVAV
Nature of the data set: Inhibition of Lactobacillus casei thymidylate synthase. The arrangement: species or system Lacticaseibacillus casei.

Data set [27] addresses T2, Folylpolyglutamate synthase, mitochondrial (Homo sapiens) (UniProt Q05932).
T2 sequence (whole entry): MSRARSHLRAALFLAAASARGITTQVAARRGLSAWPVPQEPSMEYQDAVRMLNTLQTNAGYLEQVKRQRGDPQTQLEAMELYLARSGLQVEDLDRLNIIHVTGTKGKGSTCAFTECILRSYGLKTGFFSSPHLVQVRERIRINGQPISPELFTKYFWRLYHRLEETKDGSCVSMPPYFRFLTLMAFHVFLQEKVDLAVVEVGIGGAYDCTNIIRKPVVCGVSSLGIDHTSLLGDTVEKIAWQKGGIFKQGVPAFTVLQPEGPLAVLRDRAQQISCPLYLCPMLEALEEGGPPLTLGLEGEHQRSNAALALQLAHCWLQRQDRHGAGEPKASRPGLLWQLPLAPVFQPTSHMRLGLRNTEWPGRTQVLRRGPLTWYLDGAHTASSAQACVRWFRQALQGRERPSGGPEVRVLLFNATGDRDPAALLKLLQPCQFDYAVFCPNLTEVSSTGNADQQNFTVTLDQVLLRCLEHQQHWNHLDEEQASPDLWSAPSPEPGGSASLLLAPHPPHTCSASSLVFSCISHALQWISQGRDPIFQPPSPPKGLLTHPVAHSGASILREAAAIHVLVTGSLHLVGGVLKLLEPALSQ
Nature of the data set: Ratio of Vmax to Km of human recombinant cytosolic FPGS.

The subject of data set [28] is CCRF-CEM. Nature of the data set: Growth inhibition of human CCRF-CEM cells at 1500 nM. Type of data set: functional.
For data set [29], the target named is T3, Dihydrofolate reductase (Homo sapiens, UniProt P00374).
T3 sequence (P00374 whole entry): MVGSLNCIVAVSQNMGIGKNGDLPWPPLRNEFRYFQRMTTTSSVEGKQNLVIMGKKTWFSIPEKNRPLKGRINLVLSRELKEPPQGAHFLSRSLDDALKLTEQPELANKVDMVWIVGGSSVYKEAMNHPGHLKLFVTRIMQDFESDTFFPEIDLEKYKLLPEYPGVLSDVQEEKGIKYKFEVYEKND

Data set [30] addresses T4, Dihydrofolate reductase (Escherichia coli, UniProt P0ABQ4).
T4 sequence (P0ABQ4 whole entry): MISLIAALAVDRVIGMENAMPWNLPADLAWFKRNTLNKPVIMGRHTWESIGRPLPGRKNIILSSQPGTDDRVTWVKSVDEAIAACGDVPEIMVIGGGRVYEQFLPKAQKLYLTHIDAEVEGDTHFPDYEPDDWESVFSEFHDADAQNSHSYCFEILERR

Data set [31] has as its target Dihydrofolate reductase (Lactobacillus casei, UniProt P00381).
Substrate in data set [32]: Nc1nc(N)c2c(CCCc3ccc(C(=O)N[C@@H](CCC(=O)O)C(=O)O)cc3)coc2n1
Put plainly: Activity of human recombinant cytosolic FPGS.

Substrate in data set [33]: Nc1nc(N)c2c(CCCc3ccc(C(=O)N[C@@H](CCC(=O)O)C(=O)O)cc3)coc2n1
Nature of the data set: (§1) Activity of human recombinant cytosolic FPGS relative to aminopterin.

Substrate in data set [34]: Nc1nc(N)c2c(CCc3ccc(C(=O)N[C@@H](CCC(=O)O)C(=O)O)cc3)coc2n1
Described as §1.

Thymidylate synthase (Escherichia coli, UniProt C3SWJ7), sequence (C3SWJ7 whole entry): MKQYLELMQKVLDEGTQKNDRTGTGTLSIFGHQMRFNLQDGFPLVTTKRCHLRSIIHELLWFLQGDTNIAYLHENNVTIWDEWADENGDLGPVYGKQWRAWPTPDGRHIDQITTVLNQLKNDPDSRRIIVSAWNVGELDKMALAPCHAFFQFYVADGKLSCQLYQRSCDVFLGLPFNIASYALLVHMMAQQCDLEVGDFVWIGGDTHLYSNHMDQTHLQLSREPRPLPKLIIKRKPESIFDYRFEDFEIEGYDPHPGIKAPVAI
Dihydrofolate reductase (Lactobacillus casei, UniProt P00381), sequence (P00381 whole entry): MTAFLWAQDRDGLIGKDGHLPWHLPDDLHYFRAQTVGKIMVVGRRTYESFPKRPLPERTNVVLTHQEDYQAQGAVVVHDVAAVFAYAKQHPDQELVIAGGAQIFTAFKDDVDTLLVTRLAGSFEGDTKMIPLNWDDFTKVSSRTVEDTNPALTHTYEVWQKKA

With `Nc1ccn([C@H]2C[C@H](O)[C@@H](CO)O2)c(=O)n1` [DOXECITINE], the Activity in the data set with CCRF-CEM [1] came out at 97%.

For `CN(Cc1cnc2nc(N)nc(N)c2n1)c1ccc(C(=O)N[C@@H](CCC(=O)O)C(=O)O)cc1` [METHOTREXATE], the Activity in the data set with CCRF-CEM [2] was 16%; in the data set with CCRF-CEM [3] it was 15.5%; with CCRF-CEM [4], 74.5%; with CCRF-CEM [5], 12.5%; in the data set on CCRF-CEM [6] it was 13.5%; in the data set on CCRF-CEM [7], 73.5%.

`Nc1nc(N)c2c(CCCc3ccc(C(=O)N[C@@H](CCC(=O)O)C(=O)O)cc3)coc2n1`: the Activity with CCRF-CEM [8] was found to be 21%; with CCRF-CEM [5], 25.5%; in the data set on CCRF-CEM [6], 20%; in the data set with CCRF-CEM [7] it was 73.5%. For the same molecule, the GI50 is 42.9 nM in data set [9]; 10 nM in data set [10]; 10 nM in data set [11]; 10 nM in data set [12]; 16.6 nM in data set [13]; 10 nM in [14]. In addition, the GI50 in data set [15] is 95900 nM; in data set [16], 10 nM; in data set [17], 10 nM; in the data set with SF-268, 648 nM; in data set [18], 100000 nM; in data set [19], 123 nM. Moreover, the 50% growth inhibitory concentration (GI50) in [20] came to 12.5 nM; in data set [21], 174 nM; in data set [22], 21.4 nM; in data set [23] it was 22.3 nM. Also, the IC50 on Thymidylate synthase [24] was above 18000 nM; against Thymidylate synthase [25] it was above 180000 nM; at Thymidylate synthase [26], above 100000 nM; against Dihydrofolate reductase [29] it was 9000 nM; on Dihydrofolate reductase [30] it was 7000 nM; on Dihydrofolate reductase [31], 11000 nM. Further, the Ratio in [27] was determined as 1.4. For the same molecule, the inhibition at 1.5 µM in the data set with CCRF-CEM [28] amounted to 80%.

Take `Nc1nc(N)c2nc(CNc3ccc(C(=O)N[C@@H](CCC(=O)O)C(=O)O)cc3)cnc2n1`: the Ratio in data set [27] was 0.22.

Regarding `Nc1nc2[nH]cc(CCc3ccc(C(=O)N[C@@H](CCC(=O)O)C(=O)O)cc3)c2c(=O)[nH]1` [PEMETREXED], the IC50 at Thymidylate synthase [24] was found to be 19000 nM; against Thymidylate synthase [26], 38000 nM.

For the molecule `Nc1nc(N)c2c(CCc3ccc(C(=O)N[C@@H](CCC(=O)O)C(=O)O)cc3)coc2n1`, the Ratio in data set [27] was 0.07.

B1: Folylpolyglutamate synthase, mitochondrial (Homo sapiens), Q05932 (protein)
chain: MSRARSHLRAALFLAAASARGITTQVAARRGLSAWPVPQEPSMEYQDAVRMLNTLQTNAGYLEQVKRQRGDPQTQLEAMELYLARSGLQVEDLDRLNIIHVTGTKGKGSTCAFTECILRSYGLKTGFFSSPHLVQVRERIRINGQPISPELFTKYFWRLYHRLEETKDGSCVSMPPYFRFLTLMAFHVFLQEKVDLAVVEVGIGGAYDCTNIIRKPVVCGVSSLGIDHTSLLGDTVEKIAWQKGGIFKQGVPAFTVLQPEGPLAVLRDRAQQISCPLYLCPMLEALEEGGPPLTLGLEGEHQRSNAALALQLAHCWLQRQDRHGAGEPKASRPGLLWQLPLAPVFQPTSHMRLGLRNTEWPGRTQVLRRGPLTWYLDGAHTASSAQACVRWFRQALQGRERPSGGPEVRVLLFNATGDRDPAALLKLLQPCQFDYAVFCPNLTEVSSTGNADQQNFTVTLDQVLLRCLEHQQHWNHLDEEQASPDLWSAPSPEPGGSASLLLAPHPPHTCSASSLVFSCISHALQWISQGRDPIFQPPSPPKGLLTHPVAHSGASILREAAAIHVLVTGSLHLVGGVLKLLEPALSQ
For B1, in data set [32], the Km was 0.3 µM. The Vmax in data set [33] turned out to be 0.42; in data set [34], 0.65.
